Reference: patent US10265342B2, “Sustained-release composition, method for fabricating, and use thereof” (NATIONAL TSING HUA UNIVERSITY, priority 2017, dated 2019)

Assays:
[1] = tested on: hindlimb ischemia (ligation of femoral artery); assay: mouse hindlimb ischemia model; type: in vivo, BALB/c mice; conditions: intramuscular injection into quadriceps muscle
Method: As mentioned above, the sustained-release composition can be applied for promoting angiogenesis in ischemic tissues. Thus, the effect of such the use will be further evaluated through a mouse hindlimb ischemia model and utilizes the sustained-release composition of the 1st embodiment of the present disclosure. In the present disclosure, all animal experimentation processes are performed according to an animal care and use guideline promulgated by Council of Agriculture, Executive Yuan, R.O.C. (Taiwan). In particular, BALB/c mice are served as a platform for developing the animal model. In the beginning, for each of the mice, 2 L/min of oxygen and 4% inhaled isoflurane are provided into an anesthesia box to introduce a general anesthesia in the mouse under room temperature, and the mouse is intubated and supplied by 3% isoflurane continuously. After a medial thigh area of the mouse is cut by a scalpel, the mouse is subjected by ligation of upper end and lower end of femoral artery to simulate hindlimb ischemia.
Subsequently, an intramuscular injection is performed into the quadriceps muscle adjacent to the proximal ligation site. The abovementioned mice can be divided into four groups according to the treatment. In details, the mice of Group 1 are only injected with physiological saline. […] The mice of Group 4 are injected with the sustained-release composition of the 1st embodiment. […]

[2] = cited from earlier work

C=CCSSSCC=C [free diallyl trisulfide, diallyl trisulfide]
hindlimb kept or lost after fourteen days [1]: lose its hindlimb
muscle atrophy of the hindlimb ([1]; fourteen days): slighter than that of the mice of Group 1 and Group 3
half-life in aqueous solution [2]: around 15 minutes
